US9138434B2, “Octahydrothienoquinoline derivative, pharmaceutical composition comprising derivative, and use of these” (KISSEI PHARMACEUTICAL CO., LTD., priority 2011, dated 2015)

Legend:
[1] = target: T1, human serotonin 5-HT2B receptor (Homo sapiens, UniProt P41595); assay: Stimulating activities on human serotonin 5-HT2B receptor, intracellular calcium in forced expression HEK293 cells; assay type: cell-based; settings: intracellular calcium (Fluo-4), HEK293 cells transiently expressing human 5-HT2B receptor; mean, n=2; read-out: EC50
T1 construct: expressed in transfected cells; host or cells: HEK293, transient transfection (Lipofectamine 2000)
Protocol: Identification Test of Stimulating Activities on Human Serotonin 5-HT2B Receptor
The PCR was performed using forward primer depicted as sequence ID No. 4, reverse primer depicted as sequence ID No. 5 and KOD-Plus-Ver.2 (TOYOBO) as template of human brain hippocampus cDNA (Clontech). The PCR product was inserted into a plasmid (pcDNA3.1/V5-His-Topo (registered mark)). The PCR product-inserted plasmid was transformed in E. coli (One Shot TOP10 Chemically Competent). That E. coli was incubated in LB agar medium contained 50 μg/mL ampicillin for a day. A selected colony was incubated in LB medium contained 50 μg/mL ampicillin and PCR product-inserted plasmid was purified with QIAprep Spin Miniprep Kit (QIAGEN).
Mostly confluent HEK293 cells were washed with PBS, followed by exfoliation with 0.05% trypsin-EDTA and the cells were suspended in D-MEM liquid medium (phenol red-free, low glucose, pyruvic acid were contained) containing fetal bovine serum (final concentration: 10%) and GlutaMax (registered mark)I (final concentration: 2 mM). The suspension was scattered at 5×10^4 cells/100 L/well on poly-D-lysine-coated 96-well microplate (BD BioCoat (registered mark)). The scattered cells were cultured in 5% CO2 incubator at 37° C. Human serotonin 5-HT2B receptor expression plasmid was transfected in that cells according to the procedure seeing below.
Human serotonin 5-HT2B receptor expression plasmid and Lipofectamine (registered mark) 2000 (Invitrogen) were diluted to 0.008 g/L and 0.016 g/L each other with OPTI-MEM (registered mark)I Reduced-Serum Medium and incubated at room temperature. After incubation, the human serotonin 5-HT2B receptor exoression plasmid-diluted liquid and Lipofectamine (registered mark) 2000-diluted liquid were mixed at an equal volume and incubated at room temperature to form a complex. The complex was dispensed at 50 μL/well on the cells prepared above. The cells were incubated in 5% CO2 incubator at 37° C. for 2 days. After incubation, the cells were used as human serotonin 5-HT2B receptor forced expression cells for measurement of intracellular calcium concentration.
3) Determination of Stimulating Activities of Human Serotonin 5-HT2B Receptor
The stimulating activities of human serotonin 5-HT2B receptor was determined by measuring of intracellular calcium concentration. The 30 mM dimethyl sulfoxide (DMSO) solution contained test compounds or serotonin hydrochloride (Sigma) as positive control, was diluted with assay buffer ((HBSS), 20 mM HEPES, 1.3 mM calcium chloride, 0.5 mM magnesium chloride and 0.4 mM magnesium sulfate were contained, pH7.4) to appropriate concentration.
The forced expression cells were washed with assay buffer, and 100 μL/well of fluorescent calcium indicator (Fluo-4 NW Calcium Assay Kit) was added and incubated in 5% CO2 incubator at 37° C. After incubation, 50 μL/well of each test compound was added, and the concentration of intracellular calcium was measured as fluorescent signal with FlexStation (registered mark) II (Molecular Devices). The data was analyzed by nonlinear regression and sigmoidal dose-response curve fitting using GraphPad PRISM 4.0, and values of EC50 (concentration of the compound producing half the maximal effect of the compound) were calculated. The data was presented as mean value (n=2).

[2] = target: T2, human dopamine D2 receptor (Homo sapiens, UniProt P14416); assay: Stimulating activities on human dopamine D2 receptor, [35S]GTPγS binding to hD2R#7 cell membrane homogenates; assay type: biochemical; settings: [35S]GTPγS binding, membrane homogenates of HEK293 cells stably expressing human D2 receptor; mean, n=2; read-out: EC50
T2 construct: accorded to it of human dopamine D2 receptor (NM1-000795) registered on NCBI completely; expressed in transfected cells; membrane homogenates
Protocol: Identification Test of Stimulating Activities on Human Dopamine D2 Receptor
4) Preparation of Membrane Homogenates from hD2R#7 Cells
(2) Preparation of Membrane Homogenates from hD2R#7 Cells
The cells, which were grown to confluence in 150 mm dishes (IWAKI), were harvested with isotonic buffer (50 mM Tris (Sigma), 2 mM ethylenediamine-tetraacetic acid (Invitrogen), and 125 mM sodium chloride (Wako Pure Chemicals), pH 7.4) and centrifuged at 1880×g and 4° C. for 10 minutes, and the cell pellets were then suspended in isotonic buffer. After being subjected to one cycle of freezing and thawing, the cells were centrifuged at 1880×g and 4° C. for 10 minutes, and the cell pellets were suspended in isotonic buffer. The cells were centrifuged at 1880×g and 4° C. for 10 minutes, and the cell pellets were suspended in isotonic buffer and homogenate buffer (10 mM sodium bicarbonate (Nacalai) and 5 mM ethylenediamine-tetraacetic acid, pH 7.5). The volume ratio of isotonic-to-homogenate buffer was 2. The cells were sonicated and centrifuged at 1880×g and 4° C. for 10 minutes, and the supernatants were ultracentrifuged at 80000×g and 4° C. for 30 minutes. The final cell pellets were suspended in homogenate buffer containing protease inhibitor cocktail (Nacalai) and stored at −80° C. until use. The protein concentration was determined using BCA Protein Assay Kit (Pierce) in accordance with the manufacturer's instructions.
5) Determination of Stimulating Activities of Human Dopamine D2 Receptor
The stimulating activities of human dopamine D2 receptor was determined by measuring the binding potential of [^35S]-guanosine 5′-[gamma-thio]triphosphate ([^35S]GTPγS, PerkinElmer) according to the method described by Newman-Tancredi A. et al. (Naunyn-Schmiedeberg's Arch Pharmacol, 1999, vol. 359, pp. 447-453) with a minor modification. Test compounds and dopamine hydrochloride (Fluka) as positive control were dissolved in dimethyl sulfoxide (CARLBIOCHEM), resulting in 30 mM. The both compounds were diluted with assay buffer (50 mM Tris, 100 mM sodium chloride, 5 mM magnesium chloride (Nacalai), 1 mM ethylenediamine-tetraacetic acid, 1 mM dithiothreitol (Wako Pure Chemicals), 10 μM guanosine diphosphate (Wako Pure Chemicals) and 0.5% bovine serum albumin (Sigma), pH 7.4) to a final concentration of 100 pM (only test compounds), 1 nM, 10 nM, 100 nM, 1 μM, 10 μM and 100 μM (only dopamine hydrochloride). The above membrane homogenates and [^35S]GTPγS were diluted with assay buffer to a final concentration of 0.06 mg/mL and 0.6 nM, respectively. The serial diluted compounds (50 μL), the diluted membrane homogenates (50 μL) and the diluted [^35S]GTPγS (50 μL) were mixed on multi-screen 96-well plate (Millipore) and shaken lightly at room temperature for 60 minutes. The reaction was terminated by vacuum filtration with three times washes of ice-cold wash buffer (50 mM Tris, 100 mM sodium chloride, 5 mM magnesium chloride, and 1 mM ethylenediamine-tetraacetic acid, pH 7.4). After drying the bottoms of the plate at 60° C., MicroScinti-40 (PerkinElmer) (30 μL) was added in the plate. The tops of the plate were sealed by TopSeal-A (PerkinElmer), and the radioactivity was determined in a TopCount NXT (registered mark) (PerkinElmer) after shaking lightly for 5-10 minutes. The data was analyzed by nonlinear regression and sigmoidal dose-response curve fitting using GraphPad PRISM 4.0 (GraphPad Software), and values of EC50 (concentration of the compound producing half the maximal effect of the compound) were calculated. The data was presented as mean value (n=2).

[3] = test system: unilateral 6-OHDA-lesioned hemi-Parkinsonian rats; assay: Contralateral rotational behavior in unilateral 6-hydroxydopamine-lesioned hemi-parkinsonian rats; assay type: in vivo, rat (male Sprague-Dawley); settings: 10 mg/kg oral, fasted rats, observed up to 24 hours, mean
Protocol: 6-OHDA was dissolved at 2 mg/mL in a physiolosical saline solution containing 0.2% L-ascorbic acid. Desipramine was dissolved at 10 mg/mL in a physiolosical saline solution in a hot-water bath. Apomorphine was dissolved at 0.1 mg/mL in a physiolosical saline solution. […] Test compounds were dissolved in a solution containing 2% DMA, 100 or 200 mol % hydrochloric acid, and 98% of a 0.5% methyl cellulose solution. […] (Eur J Pharmacol, 2000, vol. 408, P. 249-255) with a minor modification. Male Sprague-Dawley rats (6-weeks-old, Charles River Laboratories Japan Inc.) were anaesthetized with intraperitoneal somnopentyl (45 mg/kg) injection and placed in a stereotaxic frame (Narishige). In order to prevent 6-OHDA-induced damage of noradrenergic neurons, desipramine (25 mg/kg) was intraperitoneally injected 30 minutes before the 6-OHDA injection. After the bregma identification via a middle calvarial incision, the skull was drilled using a dental drill at the site of 6-OHDA injection. The lesion was made by injecting 6-OHDA (8 μg in 4 μL at a speed of 1 μL/minute) unilaterally into the left medial forebrain bundle by using a injection cannula (30 gauge needle) connected to a microsyringe (Hamilton) (the lesion coordinates; A/P −2.5 mm, L/M −1.8 mm, and V/D −8.0 mm, from the bregma point and surface of the skull). The cannula was carefully removed from the animal after keeping placed on the lesion site for 5 minutes. The skull was filled its hole with dental cement, disinfected, and the scalp incision was surgically sutured. Animals recovered from anesthesia were housed as usual until the day of the experiment. 3) Determining of Contralateral Rotational Behavior Three weeks after the lesion, rats were tested on the basis of their contralateral rotational behavior (single rotation was defined as a 360° turn) in response to 0.1 mg/kg apomorphine given subcutaneously. For behavioral observation, rats were placed in plastic cylinders of a diameter of 30 cm, and its contralateral rotational behaviors were videotaped and quantified by rat-rotation auto counting system R-RACS (Kissei Wellcom). On the experimental day, animals were fasted overnight, and test compounds were orally administrated at doses of 10 mg/kg. […] Total number of rotations and the duration of the response in experimental period were presented as mean value.

T2 sequence (P14416 whole entry): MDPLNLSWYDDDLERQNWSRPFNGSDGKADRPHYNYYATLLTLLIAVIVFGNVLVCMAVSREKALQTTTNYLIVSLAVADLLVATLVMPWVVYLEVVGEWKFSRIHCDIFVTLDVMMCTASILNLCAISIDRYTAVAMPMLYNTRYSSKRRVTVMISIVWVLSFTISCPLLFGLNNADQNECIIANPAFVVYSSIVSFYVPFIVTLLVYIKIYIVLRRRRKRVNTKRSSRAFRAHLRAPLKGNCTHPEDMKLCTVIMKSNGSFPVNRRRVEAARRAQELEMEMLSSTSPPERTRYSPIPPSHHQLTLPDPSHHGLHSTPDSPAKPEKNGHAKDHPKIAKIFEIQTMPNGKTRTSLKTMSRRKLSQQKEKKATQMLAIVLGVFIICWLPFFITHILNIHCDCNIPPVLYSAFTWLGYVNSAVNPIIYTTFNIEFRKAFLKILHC
T1 sequence (P41595 whole entry): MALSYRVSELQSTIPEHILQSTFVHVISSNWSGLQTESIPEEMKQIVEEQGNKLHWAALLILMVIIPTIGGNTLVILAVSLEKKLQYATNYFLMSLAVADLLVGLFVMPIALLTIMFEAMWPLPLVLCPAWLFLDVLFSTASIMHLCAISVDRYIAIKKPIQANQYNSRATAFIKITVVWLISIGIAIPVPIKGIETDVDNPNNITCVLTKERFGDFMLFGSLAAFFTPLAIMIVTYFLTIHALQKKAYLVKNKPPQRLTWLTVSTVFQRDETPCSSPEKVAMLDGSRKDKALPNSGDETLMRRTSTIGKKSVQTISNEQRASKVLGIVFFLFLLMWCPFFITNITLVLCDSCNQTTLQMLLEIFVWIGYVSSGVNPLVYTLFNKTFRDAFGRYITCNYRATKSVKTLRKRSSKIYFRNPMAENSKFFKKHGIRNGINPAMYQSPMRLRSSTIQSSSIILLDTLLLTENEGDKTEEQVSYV

EC50 [1] [nM]	EC50 [2] [nM]	SMILES	Total number or rotations ([3]; contralateral rotations)	Duration ([3]; duration of contralateral rotation response) [min]
> 10000	11	CCNC(=O)N(CCN1CCCC1)C(=O)[C@@H]1C[C@@H]2Cc3c(sc(N)c3C#N)C[C@H]2N(C)C1 [1-6, 1-{[(4aR,6R,8aR)-2-amino-3-cyano-8-methyl-4H,4aH,5H,6H,7H,8H,8aH,9H-thieno[3,2-g]quinolin-6-yl]carbonyl}-3-ethyl-1-[2-(pyrrolidin-1-yl)ethyl]urea]	–	–
> 10000	8	CCCN(C(=O)NC1CN(C)C1)C(=O)[C@@H]1C[C@@H]2Cc3c(sc(N)c3C#N)C[C@H]2N(C)C1 [1-99]	–	–
> 10000	3	CN(C)CCNC(=O)N(CC1CC1)C(=O)[C@@H]1C[C@@H]2Cc3c(sc(N)c3C#N)C[C@H]2N(C)C1 [1-109, 1-{[(4aR,6R,8aR)-2-amino-3-cyano-8-methyl-4H,4aH,5H,6H,7H,8H,8aH,9H-thieno[3,2-g]quinolin-6-yl]carbonyl}-1-(cyclopropylmethyl)-3-[2-(dimethylamino)ethyl]urea]	–	–
> 10000	–	CCN(C(=O)NCC(CC)(CC)N(C)C)C(=O)[C@@H]1C[C@@H]2Cc3c(sc(N)c3C#N)C[C@H]2N(C)C1 [1-107, 1-{[(4aR,6R,8aR)-2-amino-3-cyano-8-methyl-4H,4aH,5H,6H,7H,8H,8aH,9H-thieno[3,2-g]quinolin-6-yl]carbonyl}-3-[2-(dimethylamino)-2-ethylbutyl]-1-ethylurea]	4033.3	1068.3

SMILES	EC50 [1] [nM]	EC50 [2] [nM]	Total number or rotations ([3]; contralateral rotations)	Duration ([3]; duration of contralateral rotation response) [min]
CCCN(C(=O)NCCNC)C(=O)[C@@H]1C[C@@H]2Cc3c(sc(N)c3C#N)C[C@H]2N(C)C1 [1-2]	> 10000	12	–	–
CCN(C(=O)NC)C(=O)[C@@H]1C[C@@H]2Cc3c(sc(N)c3C#N)C[C@H]2N(C)C1 [1-23]	> 10000	8	–	–
